From patent US20250107543A1, “TREATMENT OF AGRICULTURAL, FOOD AND RELATED PRODUCTS FOR ELIMINATING CONTAMINANTS AND ENCHANCING SHELF-LIFE” (priority 2022, published 2025)

What was measured:
weevils and weevil eggs [1] = assay: Shelf-Life Assessment of Corn; parameters: key to Visual observation: Powder at the bottom of bag / Weevils/Insects / Visual observation: Pin holes on grain: ✓ Not observed; x Observed; conditions: for Visual observation: Pin holes on grain / Visual observation: Powder at the bottom of bag / Weevils/Insects: Treated sample
Protocol: (§1) The data presented in Table-5 illustrates the efficiency of the system of the present disclosure in pre-conditioning and deactivation of weevils and weevil eggs results in delayed occurrence of insect infestation in grains.
(§2) Grains such as Dry corn, Groundnut, Rice & Wheat were separately pre-conditioned and decontaminated in the system of the present disclosure. Grains were exposed to trioxygen gas for up to 5 minutes. The products were put under pressure of trioxygen gas for a span of 9 minutes to 26 minutes. Trioxygen gas having capacity 500 g/h was generated by the trioxygen generator of the system (on site) with a constant oxygen flow rate and delivered to the decontamination chamber through silicon tube. All products were treated with hot air and then analyzed for the presence of the weevils and weevil eggs the results obtained are summarized in Table-5.

aerobic micro-organisms = assay: Aerobic/Total Plate Count of whole red chilli after pre-conditioning, trioxygen and heated air; conditions: whole red chilli 12 kg's
Protocol: (§3) This experiment illustrates the treatment of aerobic micro-organisms, yeast, mould, coliform, E. coli, Salmonella and fat soluble metabolites contaminated whole red chilli.
(§4) The data presented in Table-2 illustrate the efficacy of the present disclosure in detoxifying contaminated whole red chillies. […].
(§5) The red chillies were exposed with Trioxygen for 2 minutes. The products were put under pressure of trioxygen gas for a span of 9 minutes to 26 minutes. Based on the commodity characteristics, the exposure of trioxygen gas was repeated 10 times. Trioxygen gas having a capacity 500 g/h was generated by the trioxygen generator (on site) of the system with a constant oxygen flow rate and delivered to the decontamination chamber through silicon tube. The whole red chillies were then treated to heated air.

[2] = Pesticide residue in treated whole red chilli: Azoxystrobin; conditions: whole red chilli 12 kg's, Trial 1; HOCL and Trioxygen simultaneously
From the text: This experiment illustrates the treatment of whole red chilli contaminated with pesticide residues.
The data presented in Table-6 illustrates the efficacy of the present disclosure in detoxifying contaminated whole red chillies. Sets of whole red chillies of 12 kg's contaminated with pesticides like Azoxystrobin, Imidacloprid Novaluron and Myclobutanil were used for the experiment. An inert gas (Nitrogen & Carbon-di-oxide) were introduced into the chamber filled with the material to drive out existing air and oxygen in the chamber. Pre-conditioning was carried out with HOCL and trioxygen being introduced simultaneously in decontamination chamber with faster decontamination process in the system with a shorter timeline protocol.
The red chillies were exposed with HOCL and Trioxygen simultaneously for 2 minutes. The products were put under pressure of 2 bar of trioxygen gas for a span of 9 minutes to 26 minutes. Based on the commodity characteristics, the exposure of trioxygen gas was repeated 10 times. Trioxygen gas having a capacity 500 g/h was generated by the trioxygen generator (on site) of the system with a constant oxygen flow rate and delivered to the decontamination chamber through silicon tube. The whole red chillies were then treated to heated air.

coliform = assay: Coliform Count of treated whole red chilli; conditions: whole red chilli 12 kg's
Protocol: as §3, §4, §5

weevils and weevil eggs [3] = assay: Shelf-Life Assessment of Groundnut; parameters: key to Visual observation: Powder at the bottom of bag / Weevils/Insects / Visual observation: Pin holes on grain: ✓ Not observed; x Observed; conditions: for Visual observation: Pin holes on grain / Visual observation: Powder at the bottom of bag / Weevils/Insects: Treated sample
Protocol: as §1, §2

[4] = C17H12O6 content of treated whole red chilli; conditions: whole red chilli 12 kg's
Protocol: as §3, §4, §5

[5] = C17H12O6 content of treated corn
Protocol: The data presented in Table-4 illustrates the efficiency of the system of the present disclosure in detoxifying pre-conditioned contaminated corn.
Three sets of C17H12O6 contaminated 70 kg's of corn were separately decontaminated in the system of the present disclosure. In this case, corn samples were pre-conditioned with a pre-conditioning liquid and exposed to trioxygen gas for up to 5 minutes. The products were put under pressure of trioxygen gas for a span of 9 minutes to 26 minutes. Based on the commodity characteristics, the exposure of trioxygen gas was repeated 20 times. Trioxygen gas having capacity 500 g/h was generated by the trioxygen generator of the system (on site) with a constant oxygen flow rate and delivered to the decontamination chamber through silicon tube. All 3 sets of products were air dried and then analyzed for the presence of the contaminant and the results obtained are summarized in Table-4

Question: With `O=[O+][O-]` [Trioxygen] as the compound, how does the “No weevil infestation in system treated samples up to” value (weevils and weevil eggs [1]) read?
Answer: The value was “up to 6 months”.

Question: And the “Treatment effective in delaying infestation up to” value (weevils and weevil eggs [1])?
Answer: The value was “up to 6 months”.

Question: What about the “Remarks on Weevils/Insects, Treated” value (weevils and weevil eggs [1]; Post 1.5 Months) of the same compound?
Answer: Its value is “No weevils/insects”.

Question: And the “Remarks on Weevils/Insects, Treated” value (weevils and weevil eggs [1]; Post 2 Months)?
Answer: Its value is “No weevils/insects”.

Question: What about the “Remarks on Weevils/Insects, Treated” value (weevils and weevil eggs [1]; Post 3 Months) of the same compound?
Answer: Its value is “No weevils/insects”.

Question: And the “Remarks on Weevils/Insects, Treated” value (weevils and weevil eggs [1]; Post 5 Months)?
Answer: Its value is “No weevils/insects”.

Question: And the “Remarks on Weevils/Insects, Treated: cream coloured insect observed alive” value (weevils and weevil eggs [1]; Post 6 Months)?
Answer: The value was 1 cream coloured.

Question: And the “Remarks on Weevils/Insects, Treated: cream coloured insect observed alive” value (weevils and weevil eggs [1]; Post 7 Months)?
Answer: Its value is 3 cream coloured.

Question: What about the “Visual observation: Pin holes on grain” value (weevils and weevil eggs [1]; 1.5 Months) of the same compound?
Answer: Its value is “✓”.

Question: And the “Visual observation: Powder at the bottom of bag” value (“Visual observation: Powder” for short) (weevils and weevil eggs [1]; 1.5 Months)?
Answer: The value was “✓”.

Question: And the Weevils/Insects (weevils and weevil eggs [1]; 1.5 Months)?
Answer: Its Weevils/Insects is “✓”.

Question: And the “Visual observation: Pin holes on grain” value (weevils and weevil eggs [1]; 2 Months)?
Answer: The value was “✓”.

Question: What about the “Visual observation: Powder” value (weevils and weevil eggs [1]; 2 Months) of the same compound?
Answer: Its value is “✓”.

Question: What about the Weevils/Insects (weevils and weevil eggs [1]; 2 Months) of the same compound?
Answer: The Weevils/Insects was “✓”.

Question: And the “Visual observation: Pin holes on grain” value (weevils and weevil eggs [1]; 3 Months)?
Answer: Its value is “✓”.

Question: And the “Visual observation: Powder” value (weevils and weevil eggs [1]; 3 Months)?
Answer: Its value is “✓”.

Question: What about the Weevils/Insects (weevils and weevil eggs [1]; 3 Months) of the same compound?
Answer: Its Weevils/Insects is “✓”.

Question: What about the “Visual observation: Pin holes on grain” value (weevils and weevil eggs [1]; 5 Months) of the same compound?
Answer: The value was “✓”.

Question: What about the “Visual observation: Powder” value (weevils and weevil eggs [1]; 5 Months) of the same compound?
Answer: The value was “✓”.

Question: What about the Weevils/Insects (weevils and weevil eggs [1]; 5 Months) of the same compound?
Answer: Its Weevils/Insects is “✓”.

Question: And the “Visual observation: Pin holes on grain” value (weevils and weevil eggs [1]; 6 Months)?
Answer: The value was “✓”.

Question: What about the “Visual observation: Powder” value (weevils and weevil eggs [1]; 6 Months) of the same compound?
Answer: The value was “✓”.

Question: And the Weevils/Insects (weevils and weevil eggs [1]; 6 Months)?
Answer: Its Weevils/Insects is “x”.

Question: And the “Visual observation: Pin holes on grain” value (weevils and weevil eggs [1]; 7 Months)?
Answer: The value was “✓”.

Question: What about the “Visual observation: Powder” value (weevils and weevil eggs [1]; 7 Months) of the same compound?
Answer: Its value is “✓”.

Question: What about the Weevils/Insects (weevils and weevil eggs [1]; 7 Months) of the same compound?
Answer: Its Weevils/Insects is “x”.

Question: What about the “Number of weevils in treated sample compared to those in control, times less” value (weevils and weevil eggs [1]; at month 7) of the same compound?
Answer: The value was 5 times.

Question: And the “Number of weevils in treated sample compared to those in control, times less” value (weevils and weevil eggs [1]; at month 8)?
Answer: Its value is 1.5 times.

Question: What about the “Number of weevils in treated sample compared to those in control” value (weevils and weevil eggs [1]; at month 9) of the same compound?
Answer: Its value is “No difference”.

Question: What about the “Aerobic Plate Count, % Reduction” value (aerobic micro-organisms; Trial 1) of the same compound?
Answer: Its value is 97%.

Question: And the “Aerobic Plate Count, Results After Treatment” value (aerobic micro-organisms; Trial 1, before treatment 9.82 × 10^8 cfu/g)?
Answer: Its value is 3.0 × 10^7 cfu/g.

Question: And the “Total Plate Count, % Reduction” value (aerobic micro-organisms; Trial 2)?
Answer: The value was 80%.

Question: And the “Total Plate Count, Results After Treatment” value (aerobic micro-organisms; Trial 2, before treatment 1.85 × 10^8 cfu/g)?
Answer: The value was 3.72 × 10^7 cfu/g.

Question: And the “Total Plate Count, % Reduction” value (aerobic micro-organisms; Trial 3)?
Answer: Its value is 97%.

Question: What about the “Total Plate Count, Results After Treatment” value (aerobic micro-organisms; Trial 3, before treatment 2.4 × 10^7 cfu/g) of the same compound?
Answer: The value was 8.36 × 10^5 cfu/g.

Question: What about the “Azoxystrobin, % Reduction” value [2] of the same compound?
Answer: The value was 62%.

Question: And the “Coliform Count, % Reduction” value (coliform; Trial 1)?
Answer: The value was 93%.

Question: What about the “Coliform Count, Results After Treatment” value (coliform; Trial 1, before treatment 2.7 × 10^4 cfu/g) of the same compound?
Answer: The value was 1.82 × 10^3 cfu/g.

Question: What about the “Coliform Count, % Reduction” value (coliform; Trial 3) of the same compound?
Answer: The value was 100%.

Question: And the “Coliform Count, Results After Treatment” value (coliform; Trial 3, before treatment 5.45 × 10^3 cfu/g)?
Answer: The value was less than 10 cfu/g.

Question: And the “No weevil infestation in system treated samples up to” value (weevils and weevil eggs [3])?
Answer: The value was “up to 6 months”.

Question: And the “Treatment effective in delaying infestation up to” value (weevils and weevil eggs [3])?
Answer: The value was “up to 6 months”.

Question: What about the “Remarks on Weevils/Insects, Treated” value (weevils and weevil eggs [3]; Post 1.5 Months) of the same compound?
Answer: Its value is “No weevils/insects”.

Question: And the “Remarks on Weevils/Insects, Treated” value (weevils and weevil eggs [3]; Post 2 Months)?
Answer: Its value is “No weevils/insects”.

Question: What about the “Remarks on Weevils/Insects, Treated” value (weevils and weevil eggs [3]; Post 3 Months) of the same compound?
Answer: Its value is “No weevils/insects”.

Question: And the “Remarks on Weevils/Insects, Treated” value (weevils and weevil eggs [3]; Post 5 Months)?
Answer: The value was “No weevils/insects”.

Question: What about the “Remarks on Weevils/Insects, Treated” value (weevils and weevil eggs [3]; Post 6 Months) of the same compound?
Answer: Its value is “No weevils/insects”.

Question: What about the “Remarks on Weevils/Insects, Treated: insect observed alive, buff/cream, 5 mm long” value (weevils and weevil eggs [3]; Post 7 Months) of the same compound?
Answer: The value was 1 insect observed -.

Question: What about the “Visual observation: Pin holes on grain” value (weevils and weevil eggs [3]; 1.5 Months) of the same compound?
Answer: Its value is “✓”.

Question: And the “Visual observation: Powder” value (weevils and weevil eggs [3]; 1.5 Months)?
Answer: Its value is “✓”.

Question: What about the Weevils/Insects (weevils and weevil eggs [3]; 1.5 Months) of the same compound?
Answer: Its Weevils/Insects is “✓”.

Question: And the “Visual observation: Pin holes on grain” value (weevils and weevil eggs [3]; 2 Months)?
Answer: Its value is “✓”.

Question: And the “Visual observation: Powder” value (weevils and weevil eggs [3]; 2 Months)?
Answer: Its value is “✓”.

Question: What about the Weevils/Insects (weevils and weevil eggs [3]; 2 Months) of the same compound?
Answer: Its Weevils/Insects is “✓”.

Question: What about the “Visual observation: Pin holes on grain” value (weevils and weevil eggs [3]; 3 Months) of the same compound?
Answer: Its value is “✓”.

Question: And the “Visual observation: Powder” value (weevils and weevil eggs [3]; 3 Months)?
Answer: Its value is “✓”.

Question: What about the Weevils/Insects (weevils and weevil eggs [3]; 3 Months) of the same compound?
Answer: The Weevils/Insects was “✓”.

Question: What about the “Visual observation: Pin holes on grain” value (weevils and weevil eggs [3]; 5 Months) of the same compound?
Answer: Its value is “✓”.

Question: What about the “Visual observation: Powder” value (weevils and weevil eggs [3]; 5 Months) of the same compound?
Answer: Its value is “✓”.

Question: What about the Weevils/Insects (weevils and weevil eggs [3]; 5 Months) of the same compound?
Answer: Its Weevils/Insects is “✓”.

Question: And the “Visual observation: Pin holes on grain” value (weevils and weevil eggs [3]; 6 Months)?
Answer: Its value is “✓”.

Question: And the “Visual observation: Powder” value (weevils and weevil eggs [3]; 6 Months)?
Answer: Its value is “✓”.

Question: What about the Weevils/Insects (weevils and weevil eggs [3]; 6 Months) of the same compound?
Answer: The Weevils/Insects was “✓”.

Question: What about the “Visual observation: Pin holes on grain” value (weevils and weevil eggs [3]; 7 Months) of the same compound?
Answer: Its value is “✓”.

Question: And the “Visual observation: Powder” value (weevils and weevil eggs [3]; 7 Months)?
Answer: The value was “✓”.

Question: And the Weevils/Insects (weevils and weevil eggs [3]; 7 Months)?
Answer: Its Weevils/Insects is “x”.

Question: And the “Number of weevils in treated sample, times less than that in control sample” value (weevils and weevil eggs [3]; at month 7)?
Answer: Its value is 3 times.

Question: What about the “C17H12O6, % Reduction” value ([4]; Trial 2) of the same compound?
Answer: The value was 73%.

Question: And the “C17H12O6, % Reduction” value ([4]; Trial 3)?
Answer: Its value is 76%.

Question: And the “C17H12O6, % Reduction” value ([5]; Sr. No. 1, 70 kg's)?
Answer: Its value is 100%.

Question: What about the “C17H12O6, % Reduction” value ([5]; Sr. No. 2, 70 kg's) of the same compound?
Answer: Its value is 85%.

Question: And the “C17H12O6, % Reduction” value ([5]; Sr. No. 3, 70 kg's)?
Answer: Its value is 100%.
